The values that follow come from ChEMBL document CHEMBL1138861, “Design, synthesis, and biological evaluation of phenylamino-substituted 6,11-dihydro-dibenzo[b,e]oxepin-11-ones and dibenzo[a,d]cycloheptan-5-ones: novel p38 MAP kinase inhibitors” (J Med Chem, 2006).

A value given as a limit tells only on which side of the number the result lay.

Series [1] has as its target Mitogen-activated protein kinase 14 (Homo sapiens, UniProt Q16539).
A further series concerns the target CYP2C19 (Homo sapiens, UniProt P33261). Description: Inhibition of CYP2C19 at 10 uM. In kind it is ADME.
A further series addresses CYP2D6 (Homo sapiens, UniProt P10635). Put plainly: Inhibition of CYP2D6 at 10 uM. In kind it is ADME.
In a further series the target is CYP3A4 (Homo sapiens, UniProt P08684). Description: Inhibition of CYP3A4 at 10 uM. In kind it is ADME.
Chain of CYP3A4 (P08684 whole entry): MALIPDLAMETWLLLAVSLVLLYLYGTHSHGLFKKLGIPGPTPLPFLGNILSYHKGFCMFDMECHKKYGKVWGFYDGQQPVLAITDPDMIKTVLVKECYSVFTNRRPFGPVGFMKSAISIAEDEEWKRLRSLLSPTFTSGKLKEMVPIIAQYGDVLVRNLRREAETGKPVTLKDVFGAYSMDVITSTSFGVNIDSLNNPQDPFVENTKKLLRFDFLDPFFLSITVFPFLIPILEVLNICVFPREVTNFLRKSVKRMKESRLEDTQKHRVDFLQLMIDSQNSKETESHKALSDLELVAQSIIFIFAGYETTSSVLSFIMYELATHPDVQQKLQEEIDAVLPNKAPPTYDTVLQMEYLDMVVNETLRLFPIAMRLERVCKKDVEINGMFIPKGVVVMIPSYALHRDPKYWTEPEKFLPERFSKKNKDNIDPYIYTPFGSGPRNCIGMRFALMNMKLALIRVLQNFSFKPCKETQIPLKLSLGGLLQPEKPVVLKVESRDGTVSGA

Chain of Mitogen-activated protein kinase 14 (Q16539 whole entry): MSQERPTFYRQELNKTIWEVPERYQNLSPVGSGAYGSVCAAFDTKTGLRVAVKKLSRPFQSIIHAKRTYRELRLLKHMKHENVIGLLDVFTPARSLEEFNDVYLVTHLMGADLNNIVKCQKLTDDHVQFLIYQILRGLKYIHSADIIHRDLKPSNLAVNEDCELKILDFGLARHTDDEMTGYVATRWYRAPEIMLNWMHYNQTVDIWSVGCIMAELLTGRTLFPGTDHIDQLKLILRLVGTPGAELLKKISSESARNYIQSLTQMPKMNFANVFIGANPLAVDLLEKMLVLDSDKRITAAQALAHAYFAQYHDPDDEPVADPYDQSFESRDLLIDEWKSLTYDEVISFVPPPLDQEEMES
Chain of CYP2D6 (P10635 whole entry): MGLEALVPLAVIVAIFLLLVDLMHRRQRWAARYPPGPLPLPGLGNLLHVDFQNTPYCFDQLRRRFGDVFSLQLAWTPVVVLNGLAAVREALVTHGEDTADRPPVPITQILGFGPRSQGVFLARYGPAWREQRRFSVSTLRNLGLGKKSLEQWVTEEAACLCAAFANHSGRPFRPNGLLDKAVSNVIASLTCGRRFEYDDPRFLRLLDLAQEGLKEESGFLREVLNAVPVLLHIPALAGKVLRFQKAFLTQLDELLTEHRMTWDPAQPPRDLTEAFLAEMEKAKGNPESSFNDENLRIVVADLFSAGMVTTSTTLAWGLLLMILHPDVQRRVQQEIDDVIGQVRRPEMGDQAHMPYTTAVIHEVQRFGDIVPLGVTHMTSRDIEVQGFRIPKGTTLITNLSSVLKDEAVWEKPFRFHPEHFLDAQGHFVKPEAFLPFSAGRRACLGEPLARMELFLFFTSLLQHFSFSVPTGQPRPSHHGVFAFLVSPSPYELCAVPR
Chain of CYP2C19 (P33261 whole entry): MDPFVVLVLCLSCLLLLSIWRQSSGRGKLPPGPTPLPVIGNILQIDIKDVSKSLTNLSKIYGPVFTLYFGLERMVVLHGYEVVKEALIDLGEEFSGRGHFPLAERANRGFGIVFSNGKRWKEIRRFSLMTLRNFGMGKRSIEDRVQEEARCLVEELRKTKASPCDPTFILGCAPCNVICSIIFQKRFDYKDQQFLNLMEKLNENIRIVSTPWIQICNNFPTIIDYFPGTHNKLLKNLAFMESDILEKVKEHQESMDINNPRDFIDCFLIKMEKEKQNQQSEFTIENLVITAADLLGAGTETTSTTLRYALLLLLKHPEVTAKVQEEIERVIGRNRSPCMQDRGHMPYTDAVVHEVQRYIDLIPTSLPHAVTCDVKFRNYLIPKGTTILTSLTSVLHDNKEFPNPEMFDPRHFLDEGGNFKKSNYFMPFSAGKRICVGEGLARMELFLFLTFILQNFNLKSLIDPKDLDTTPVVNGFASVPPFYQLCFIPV

Regarding `O=C1c2ccccc2COc2cc(Nc3ccc(F)cc3F)ccc21`, in series [1], half-maximal inhibition (IC50) was put at 239 nM. In series [1], `Nc1ccccc1Nc1ccc2c(=O)c3ccccc3ccc2c1` came in with an IC50 of 1060 nM. Still for that read-out and setting: the figure for `Nc1ccccc1Nc1ccc2c(c1)COc1ccccc1C2=O` is 3060 nM; for `Nc1ccc(Nc2ccc3c(c2)OCc2ccccc2C3=O)c(N)c1` it is > 5000 nM.

Take `O=C1c2ccccc2COc2cc(Nc3ccc(Br)cc3Br)ccc21`: in series [1], the IC50 is > 5000 nM.

On to `Nc1ccc(Nc2ccc3c(c2)CCc2ccccc2C3=O)cc1`, for which, in series [1], inhibition was half-maximal at 1170 nM (IC50).

For `Nc1ccc(Nc2ccc3c(c2)OCc2ccccc2C3=O)cc1`, the IC50 in series [1] was > 5000 nM. For `Nc1ccccc1Nc1ccc2c(c1)CCc1ccccc1C2=O`, the results for the inhibition at 10 µM at CYP2C19, against CYP2D6 and on CYP3A4 were 53%, 42% and 70%, respectively.

Turning to `Nc1ccccc1Nc1ccc2c(c1)SCc1ccccc1C2=O`, inhibition in series [1] was half-maximal at 196 nM (IC50). Still for that read-out and setting: the figure for `Cc1ccccc1C(=O)c1ccc(Nc2ccccc2)cc1Cl` is 190 nM. With `O=C1c2ccccc2COc2cc(Nc3ccc(Cl)cc3Cl)ccc21`, 3020 nM corresponded to half-maximal inhibition in series [1] (IC50). Compound `Nc1cc(F)ccc1Nc1ccc2c(c1)OCc1ccccc1C2=O` returned an IC50 in series [1] of 38 nM. On the same count and under the same terms, the figure for `Nc1ccc(Nc2ccc3c(c2)OCc2ccccc2C3=O)c(F)c1` is 1320 nM.

With `C[S+]([O-])c1ccc(-c2nc(-c3ccncc3)c(-c3ccc(F)cc3)[nH]2)cc1` (centres undefined) [SB-203580], the inhibition at 10 µM against CYP2C19 came out at 92%; on CYP2D6, 73%; against CYP3A4, 77%. As for `Nc1cccc(Nc2ccc3c(c2)OCc2ccccc2C3=O)c1`, the IC50 in series [1] was determined as 1220 nM.

A word on the IC50: it is the midpoint of a concentration-inhibition curve. Broadly, the inhibition is the relative decrease from the control value, in per cent.
